Patent US9073915B2, “Substituted pyrimidone derivatives” (SANOFI, priority 2008, dated 2015)
Where a name gives a salt, the structure may show the parent alone.

Experiments:
[1] = molecular target: GSK3β (Homo sapiens, UniProt P49841); experiment: Inhibitory activity against GSK3β (33P-ATP phosphorylation of prephosphorylated GS1 peptide, filter assay); type: biochemical; conditions: protocol 3: 7.5 μM GS1 peptide, 10 μM ATP, 50 mM Hepes pH 7.2, one hour at room temperature
Description: Four different protocols can be used. […]
The reaction was stopped with 100 microliters of a solution made of 25 g polyphosphoric acid (85% P2O5), 126 ml 85% H3PO4, H2O to 500 ml and then diluted to 1:100 before use. […] Incorporated ^33P radioactivity was determined by liquid scintillation spectrometry. […]

GSK3β, sequence (P49841 whole entry): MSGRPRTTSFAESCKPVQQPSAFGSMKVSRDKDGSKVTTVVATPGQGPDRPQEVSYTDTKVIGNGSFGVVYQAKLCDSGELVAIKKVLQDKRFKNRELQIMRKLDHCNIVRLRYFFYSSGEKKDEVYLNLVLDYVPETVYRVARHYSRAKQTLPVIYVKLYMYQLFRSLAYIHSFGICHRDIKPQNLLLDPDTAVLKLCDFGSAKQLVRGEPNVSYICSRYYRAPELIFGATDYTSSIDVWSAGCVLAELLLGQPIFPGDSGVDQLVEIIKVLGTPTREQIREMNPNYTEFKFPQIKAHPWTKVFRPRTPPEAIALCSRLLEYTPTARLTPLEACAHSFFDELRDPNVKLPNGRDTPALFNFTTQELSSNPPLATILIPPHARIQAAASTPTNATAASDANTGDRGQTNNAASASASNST

O=c1cc(-c2ccncc2)nc2cc(-c3ccccc3)ccn12 [Compound No. 4, 8-Phenyl-2-pyridin-4-yl-pyrido[1,2-a]pyrimidin-4-one]
IC50 [1]: 490 nM

O=c1cc(-c2ccncc2)nc2cc(-c3ccccc3)ccn12 (as salt: salt) [Compound No. 4, 8-Phenyl-2-pyridin-4-yl-pyrido[1,2-a]pyrimidin-4-one]
melting point: 261 to 262 °C

COc1ccccc1CCc1cccn2c(=O)cc(-c3ccncc3)nc12 [compound 7, 9-[2-(2-Methoxy-phenyl)-ethyl]-2-pyridin-4-yl-pyrido[1,2-a]pyrimidin-4-one]
IC50 [1]: 30 nM

COc1ccccc1CCc1cccn2c(=O)cc(-c3ccncc3)nc12 (as salt: hydrochloride) [compound 7, 9-[2-(2-Methoxy-phenyl)-ethyl]-2-pyridin-4-yl-pyrido[1,2-a]pyrimidin-4-one]
melting point: 220 to 224 °C
